In patent US20130102593A1, “PYRROLIDINE COMPOUNDS WHICH INHIBIT BETA-SECRETASE ACTIVITY AND METHODS OF USE THEREOF” (priority 2008, published 2013):
pIC50: −log10 of the molar value. Where two headings read alike, the source gives them in different places.

How the values were obtained:
[1] = system: Aβ production; assay: Cellular Aβ IC50 determination (memapsin 2 activity in a cellular assay of Aβ production); type: cell-based, Chinese hamster; conditions: Cricetulus griseus, read-out: M2 IC50
Method: The potency of compounds against memapsin 2 activity was determined in a cellular assay of Aβ production. […] Chinese hamster ovary cells that over-express human APP695 with the London and Swedish mutations were seeded in multi-well plates at 10% confluency. Compounds are dissolved in DMSO to concentrations near 1 mM, and diluted into culture media to a final concentration near 4 μM (final 0.4% DMSO). Compounds were diluted serially and applied to cells in multi-well plates 48 h after seeding. Incubation was continued in 5% CO2 at 37° C. for 24 h. Aliquots were removed and assayed for […] content using a sandwich ELISA (BioSource International). Amount of Aβ40 over the range of concentration of compounds, relative to control incubations, were fit to a 4-parameter IC50 model.

[2] = Determination of hepatic intrinsic clearance in liver microsomes; type: in vitro ADME; conditions: human liver microsomes, value in text
Method: To 500 μl of 200 mM Na^+K^+ phoshapte buffer (pH 7.4), 100 μl of 1 mM EDTA solution was added followed by 100 μl of 2 mg protein/ml human liver microsomes. A 10 μl aliquot of test compound (20 mM stock in 50% acetonitrile) was diluted further with 40 μl of H2O (total assay volume 750 μl. Assay mixture is incubated for 5 minutes at 37° C. The assay was initiated by addition of 250 μl of 4 mM NADPH solution. Incubation was continued at 37° C. Separate reaction mixtures were prepared for 0, 5, 10, 20, and 30 min durations. Individual reactions were halted by addition of 150 μl of 100% acetonitrile. Internal standard (10 μl of 100 ng/ml diazepam solution) was added. Concentration of the test compound in each separate reaction was measured using LC/MS/MS and a standard curve for the test compound according to standard procedures.
The hepatic intrinsic clearance in liver microsome was determined by the following procedure described by Davies and Morris (Davies, B. and Morris, T. (19930) Physiological parameters in laboratory animals and humans. Pharm Res. 10:1093-1095) detailing the relationship of in vitro clearance to physiological parameters in animals and human subjects. […]
where T is time (in minutes), from the relationship of relative amount vs. time. Alternatively, k1 was determined from a transform of the equation, where […]

[3] = Chinese hamster ovary cells over-expressing human APP695 with London and Swedish mutations, 24 h, Aβ40 sandwich ELISA

pIC50 ([1]; CHO cells over-expressing human APP695, Aβ40 ELISA)	pIC50 [1, 3]	hepatic intrinsic clearance in liver microsomes (HLM CL) ([2]; listed as N-(1R,2S)-1-((2R,4R)-4-(benzyloxy)pyrrolidin-2-yl)-1-hydroxy-3-phenylpropan-2-y)	hepatic intrinsic clearance in liver microsomes (HLM CL) ([2]; listed as N-((1R,2S)-1-(2R,4R)-4-(benzyloxy)pyrrolidin-2-yl)-1-hydroxy-3-phenylpropan-2-yl)	Compound
6.54	> 6.30	approximately 337 mL/min/kg	337 mL/min/kg	Cc1coc([C@H]2CCCN2C(=O)c2cccc(C(=O)N[C@@H](Cc3ccccc3)[C@H](O)[C@H]3C[C@@H](OCc4ccccc4)CN3)c2)n1 [1-18, N-((1R,2S)-1-((2R,4R)-4-(benzyloxy)pyrrolidin-2-yl)-1-hydroxy-3-phenylpropan-2-yl)-3-((R)-2-(4-methyloxazol-2-yl)pyrrolidine-1-carbonyl)benzamide]
–	> 6.30	–	–	C=C(C)c1cccc(CNC[C@@H](O)[C@H](Cc2ccccc2)NC(=O)c2cccc(C(=O)N3CCC[C@@H]3c3nc(C)co3)c2)c1 [2-6, N-((2S,3R)-3-hydroxy-1-phenyl-4-(3-(prop-1-en-2-yl)benzylamino)butan-2-yl)-3-((R)-2-(4-methyloxazol-2-yl)pyrrolidine-1-carbonyl)benzamide, reference compound]
–	> 6.30	–	–	Cc1coc([C@H]2CCCN2C(=O)c2cc(CF)cc(C(=O)N[C@@H](Cc3ccccc3)[C@H](O)CNCc3cccc(C(C)(C)C)c3)c2)n1 [2-7, N-((2S,3R)-4-(3-tert-butylbenzylamino)-3-hydroxy-1-phenylbutan-2-yl)-3-(fluoromethyl)-5-((R)-2-(4-methyloxazol-2-yl)pyrrolidine-1-carbonyl)benzamide, reference compound]
–	> 6.30	–	–	Cc1cc(C(=O)N[C@@H](Cc2ccccc2)[C@H](O)CNCc2cncc(C(C)C)c2)cc(C(=O)N2CCC[C@@H]2c2nc(C)cs2)c1 [2-8, N-((2S,3R)-3-hydroxy-4-((5-isopropylpyridin-3-yl)methylamino)-1-phenylbutan-2-yl)-3-methyl-5-((R)-2-(4-methylthiazol-2-yl)pyrrolidine-1-carbonyl)benzamide, reference compound]
–	> 6.30	–	–	Cc1csc(CN(C(=O)c2cccc(C(=O)N[C@@H](Cc3ccccc3)[C@H](O)CNCc3cccc(C(F)(F)F)c3)c2)C2CC2)n1 [2-9, N1-cyclopropyl-N3-((2S,3R)-3-hydroxy-1-phenyl-4-(3-(trifluoromethyl)benzylamino)butan-2-yl)-N1-((4-methylthiazol-2-yl)methyl)isophthalamide, reference compound]
–	> 6.30	–	–	Cc1csc([C@H]2CCCN2C(=O)c2cccc(C(=O)N[C@@H](Cc3ccccc3)[C@H](O)CNCc3cccc(C(C)(C)C)c3)c2)n1 [2-10, N-((2S,3R)-4-(3-tert-butylbenzylamino)-3-hydroxy-1-phenylbutan-2-yl)-3-((R)-2-(4-methylthiazol-2-yl)pyrrolidine-1-carbonyl)benzamide, reference compound]
